The values below come from patent US11026957B2, “Method to treat lipid dysregulation by modulation of proprotein convertase subtilisin/kexin type 9 (PCSK9) protein activity with small molecule ligands” (SRX CARDIO, LLC, priority 2014, dated 2021).

For the test, the target named is recombinant human PCSK9 (Homo sapiens, UniProt Q8NBP7). In words: Direct binding measurement by backscatter interferometry. The following applies: 6-point binding curve, ±8 nM, r^2 of 0.86. As to the method: Direct binding was measured using backscatter interferometry, which has been previously described in “Interferometric detection system and method” (EP 1210581), “Free solution measurement of molecular interactions by backscattering interferometry” (WO 2009039466), “Temperature-stable interferometer” (WO 2009076372), and “Improved event detection for back-scattering interferometry” (WO 2013158300); which are incorporated herein in their entirety by reference.
Chain of recombinant human PCSK9 (Q8NBP7 153-692): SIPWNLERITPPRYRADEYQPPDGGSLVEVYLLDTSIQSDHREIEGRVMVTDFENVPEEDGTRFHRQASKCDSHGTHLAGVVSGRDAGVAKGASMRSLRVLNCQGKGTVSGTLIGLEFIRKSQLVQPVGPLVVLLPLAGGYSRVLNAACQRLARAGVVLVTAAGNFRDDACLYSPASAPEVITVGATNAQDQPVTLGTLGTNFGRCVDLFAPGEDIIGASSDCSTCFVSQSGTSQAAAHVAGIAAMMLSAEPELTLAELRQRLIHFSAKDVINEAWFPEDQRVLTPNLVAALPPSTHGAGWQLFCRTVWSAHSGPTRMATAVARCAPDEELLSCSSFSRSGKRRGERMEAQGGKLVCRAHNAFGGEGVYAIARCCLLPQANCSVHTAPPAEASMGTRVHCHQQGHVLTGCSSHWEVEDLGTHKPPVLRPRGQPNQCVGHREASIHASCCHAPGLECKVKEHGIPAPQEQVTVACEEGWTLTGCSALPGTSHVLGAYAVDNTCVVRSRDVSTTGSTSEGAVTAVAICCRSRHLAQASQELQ

For `C/C(=N\Nc1nnn[nH]1)C(=O)N1CCC(c2ccccc2)CC1` [SRX200, (E)-2-(2-(1H-tetrazol-5-yl)hydrazono)-1-(4-phenylpiperidin-1-yl)propan-1-one], the Kd – broadly, the free concentration of one partner at which half of the binding sites on the other are occupied at equilibrium, for simple one-to-one binding – turned out to be 24 nM.
